Experimental data from patent publication US8080251B2, “Antigenic peptides” (Centre for DNA Fingerprinting and Diagnostics, priority 2004, dated 2011).

Experiments:
[1] = test system: serum IgG antibodies (patient sera); experiment: ELISA of serum IgG antibody response of TB patients to rRv2608 protein / synthetic peptides; type: binding, human; settings: for Reactivity with patient sera: TB patient sera, ELISA; for Mean (O.D. at 492 nm): humoral response, antigen 2 μg/ml
[2] = test system: peripheral blood mononuclear cells (PBMCs); experiment: Lymphocyte (T cell) proliferation assay, MTT readout; type: cell-based, human; settings: comparison between patient categories / between peptides
[3] = Category I patients (TB diagnosed for the first time, n=22)
[4] = Category II patients (relapsed TB, n=21)
[5] = Category III patients (extrapulmonary TB, n=8)

Row | Molecule | Reactivity with patient sera [1] | Mean (O.D. at 492 nm) [1, 3] | Mean (O.D. at 492 nm) [1, 4] | Mean (O.D. at 492 nm) [1, 5] | T cell proliferative response [2] | T cell proliferative response ([2]; listed as Peptide 2) | T cell proliferative response ([2]; listed as peptide 2) | Serum reactivity of extrapulmonary TB patients ([1]; Category III compared to Category I or II) | Serum reactivity compared with Hsp10 ([1]; all patient categories, p>0.05) | Serum reactivity of healthy controls ([1]; healthy controls (n=10) vs patients, p=0.0002)
1 | DNIGNANIGFGNK (listed as Mycobacterium tuberculosis) [Peptide P1a, 13-residue overlapping peptide, component of peptide 1] | react equally well with patient sera | 0.426 | 0.770 | 0.473 |  |  |  |  |  | 
2 | DNIGNANIGFGNRGDANIGIGNIGDRNLGIGNTGNWK (listed as Mycobacterium tuberculosis) [Peptide P1] | strongly react with patient sera | 0.412 | 0.675 | 0.483 |  |  |  |  |  | 
3 | DRNLGIGNTGNWK (listed as Mycobacterium tuberculosis) [Peptide P1e, 13-residue overlapping peptide, component of peptide 1] | react equally well with patient sera | 0.407 | 0.711 | 0.405 |  |  |  |  |  | 
4 | GIGNIGDRNLGIK (listed as Mycobacterium tuberculosis) [Peptide P1d, 13-residue overlapping peptide, component of peptide 1] | react equally well with patient sera | 0.482 | 0.787 | 0.527 |  |  |  |  |  | 
5 | GNPNRPDGGILTK (listed as Mycobacterium tuberculosis) [Peptide P2c, 13-residue overlapping peptide, part of peptide 2] | react equally well with patient sera | 0.491 | 0.632 | 0.410 | comparatively higher T cell response |  |  |  |  | 
6 | LSFTLTGNPNRPK (listed as Mycobacterium tuberculosis) [Peptide P2b, 13-residue overlapping peptide, part of peptide 2] | react equally well with patient sera | 0.450 | 0.498 | 0.422 |  |  |  |  |  | 
7 | NIGFGNRGDANIK (listed as Mycobacterium tuberculosis) [Peptide P1b, 13-residue overlapping peptide, component of peptide 1] | react equally well with patient sera | 0.469 | 0.775 | 0.520 |  |  |  |  |  | 
8 | RGDANIGIGNIGK (listed as Mycobacterium tuberculosis) [Peptide P1c, 13-residue overlapping peptide, component of peptide 1] | react equally well with patient sera | 0.416 | 0.810 | 0.380 |  |  |  |  |  | 
9 | RPGLDELSFTLTGNPNRPDGGILTK (listed as Mycobacterium tuberculosis) [Peptide P2] | strongly react with patient sera | 0.480 | 0.706 | 0.441 | comparatively higher T cell response | higher response in fresh infection cases | fresh infection cases>relapsed TB>extrapulmonary TB cases |  |  | 
10 | RPGLDELSFTLTK (listed as Mycobacterium tuberculosis) [Peptide P2a, 13-residue overlapping peptide, part of peptide 2] | react equally well with patient sera | 0.473 | 0.689 | 0.392 |  |  |  |  |  | 
11 | rRv2608: 59.6 kDa recombinant M. tuberculosis PPE_MPTR protein Rv2608, expressed in E. coli BL21 as 6×His-tag fusion protein (protein, left off: small tags and cut ends) MNFAVLPPEVNSARIFAGAGLGPMLAAASAWDGLAEELHAAAGSFASVTTGLAGDAWHGPASLAMTRAASPYVGWLNTAAGQAAQAAGQARLAASAFEATLAATVSPAMVAANRTRLASLVAANLLGQNAPAIAAAEAEYEQIWAQDVAAMFGYHSAASAVATQLAPIQEGLQQQLQNVLAQLASGNLGSGNVGVGNIGNDNIGNANIGFGNRGDANIGIGNIGDRNLGIGNTGNWNIGIGITGNGQIGFGKPANPDVLVVGNGGPGVTALVMGGTDSLLPLPNIPLLEYAARFITPVHPGYTATFLETPSQFFPFTGLNSLTYDVSVAQGVTNLHTAIMAQLAAGNEVVVFGTSQSATIATFEMRYLQSLPAHLRPGLDELSFTLTGNPNRPDGGILTRFGFSIPQLGFTLSGATPADAYPTVDYAFQYDGVNDFPKYPLNVFATANAIAGILFLHSGLIALPPDLASGVVQPVSSPDVLTTYILLPSQDLPLLVPLRAIPLLGNPLADLIQPDLRVLVELGYDRTAHQDVPSPFGLFPDVDWAEVAADLQQGAVQGVNDALSGLGLPPPWQPALPRLF |  |  |  |  |  |  |  | less reactivity | equal to or higher than the response to Hsp10 | significantly less when compared to that of patients
